According to ChEMBL document CHEMBL1201862, “PubChem BioAssay data set” (2004):
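1) Cells in 96-well plates. 2) Compound, 48 h, 5 concentrations. 3) Linear interpolation between surrounding doses. 4) Unreached endpoint = highest concentration. GI50: concentration for 50% inhibition of growth.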 Calls of active or inactive are those of the source. No stated cut-off is given here; in the data, active = GI50 up to about 1.1 µM and inactive = higher.

Legend:
Assay in all cases: inhibition of tumour cell growth, NCI panel, 48 h
EKVX = tested on: EKVX
SNB-75 = tested on: SNB-75
XF498 = tested on: XF498
SK-MEL-5 = tested on: SK-MEL-5
NCI-H226 = tested on: NCI-H226
RPMI-8226 = tested on: RPMI-8226
HOP-18 = tested on: HOP-18
IGROV-1 = tested on: IGROV-1
RXF 393 = tested on: RXF 393
CCRF-CEM = tested on: CCRF-CEM
M19-MEL = tested on: M19-MEL
A498 = tested on: A498
TK-10 = tested on: TK-10
OVCAR-3 = tested on: OVCAR-3
UACC-62 = tested on: UACC-62
HL-60 = tested on: HL-60
SW-620 = tested on: SW-620
OVCAR-8 = tested on: OVCAR-8
NCI-H460 = tested on: NCI-H460
HOP-92 = tested on: HOP-92
OVCAR-4 = tested on: OVCAR-4
M14 = tested on: M14
LXFL 529 = tested on: LXFL 529
KM-20L2 = tested on: KM-20L2
MOLT-4 = tested on: MOLT-4
LOX IMVI = tested on: LOX IMVI
DMS-114 = tested on: DMS-114
NCI-H522 = tested on: NCI-H522
SK-MEL-2 = tested on: SK-MEL-2
A549 = tested on: A549
SF-539 = tested on: SF-539
U-251 = tested on: U-251
SNB-78 = tested on: SNB-78
K562 = tested on: K562
SK-MEL-28 = tested on: SK-MEL-28
HT-29 = tested on: HT-29
SK-OV-3 = tested on: SK-OV-3
DLD-1 = tested on: DLD-1
OVCAR-5 = tested on: OVCAR-5
CAKI-1 = tested on: CAKI-1
DMS-273 = tested on: DMS-273
KM12 = tested on: KM12
SN12C = tested on: SN12C
786-0 = tested on: 786-0
HCC 2998 = tested on: HCC 2998
SNB-19 = tested on: SNB-19
SR = tested on: SR
UO-31 = tested on: UO-31
Malme-3M = tested on: Malme-3M
HOP-62 = tested on: HOP-62
COLO 205 = tested on: COLO 205
HCT-116 = tested on: HCT-116
ACHN = tested on: ACHN
SF-295 = tested on: SF-295
HCT-15 = tested on: HCT-15
NCI-H23 = tested on: NCI-H23
UACC-257 = tested on: UACC-257
SF-268 = tested on: SF-268

Measured: GI50

N#CC1CC(c2ccccc2)Nc2cc(Cl)ccc2N1 (stereo not drawn)
13.8 µM: HCT-15
inactive: EKVX > 79.6 µM | SNB-75 36.5 µM | XF498 29.7 µM | SK-MEL-5 41.2 µM | NCI-H226 > 100 µM | RPMI-8226 6.31 µM | HOP-18 > 87.1 µM | IGROV-1 69.7 µM | RXF 393 38.8 µM | CCRF-CEM 3.18 µM | M19-MEL 44.8 µM | A498 > 100 µM | TK-10 > 100 µM | OVCAR-3 19.3 µM | UACC-62 31.6 µM | HL-60 4.1 µM | SW-620 4.5 µM | OVCAR-8 33 µM | NCI-H460 35.4 µM | HOP-92 26.7 µM | OVCAR-4 40.5 µM | M14 24.3 µM | LXFL 529 21 µM | KM-20L2 43.7 µM | MOLT-4 10.9 µM | LOX IMVI 33.1 µM | DMS-114 5.78 µM | NCI-H522 3.68 µM | SK-MEL-2 29.1 µM | A549 37.6 µM | SF-539 38.3 µM | U-251 30.7 µM | SNB-78 50.7 µM | K562 9.14 µM | SK-MEL-28 > 93.8 µM | HT-29 24.4 µM | SK-OV-3 > 100 µM | DLD-1 28.9 µM | OVCAR-5 > 100 µM | CAKI-1 34.8 µM | DMS-273 31.2 µM | KM12 34.8 µM | SN12C 63.1 µM | 786-0 24.1 µM | HCC 2998 > 100 µM | SNB-19 > 50.5 µM | SR 14.3 µM | UO-31 > 100 µM | Malme-3M 24 µM | HOP-62 55.7 µM | COLO 205 7.11 µM | HCT-116 19.3 µM | ACHN 61.5 µM | SF-295 40.9 µM | NCI-H23 31.6 µM | UACC-257 > 81.7 µM | SF-268 45.2 µM

N#CC1C2CCC3(CC2CCN1C(=O)c1ccccc1)OCCO3 (stereo not drawn)
inactive: EKVX > 100 µM | SNB-75 > 100 µM | XF498 > 100 µM | SK-MEL-5 > 100 µM | RPMI-8226 > 100 µM | HOP-18 > 100 µM | IGROV-1 > 100 µM | RXF 393 > 100 µM | CCRF-CEM > 100 µM | M19-MEL > 100 µM | A498 > 100 µM | TK-10 > 100 µM | OVCAR-3 > 100 µM | UACC-62 > 100 µM | HL-60 > 100 µM | SW-620 > 100 µM | OVCAR-8 > 100 µM | NCI-H460 > 100 µM | HOP-92 > 100 µM | OVCAR-4 > 100 µM | M14 > 100 µM | LXFL 529 > 100 µM | KM-20L2 > 100 µM | MOLT-4 > 100 µM | LOX IMVI > 100 µM | DMS-114 > 100 µM | SK-MEL-2 2.37 µM | A549 > 100 µM | SF-539 > 100 µM | U-251 > 100 µM | SNB-78 > 100 µM | K562 > 100 µM | SK-MEL-28 > 100 µM | HT-29 > 100 µM | SK-OV-3 > 100 µM | DLD-1 > 100 µM | OVCAR-5 > 100 µM | DMS-273 > 100 µM | KM12 > 100 µM | SN12C > 100 µM | 786-0 > 100 µM | HCC 2998 > 100 µM | SNB-19 > 100 µM | SR > 100 µM | UO-31 > 100 µM | Malme-3M > 100 µM | HOP-62 > 100 µM | COLO 205 > 100 µM | HCT-116 > 100 µM | ACHN > 100 µM | SF-295 > 100 µM | NCI-H23 > 100 µM | UACC-257 > 100 µM | SF-268 > 100 µM
> 100 µM: HCT-15
